Assay results taken from the supplement of paper PMC4862054.

Legend:
Experiment in all cases: normalised response (% of control), CellTiter-Glo; higher = more viable cells (100 = DMSO, 0 = benzethonium chloride kill control)
Settings in all cases: incubation time: 72 h
[1] = system: MFM-223
Summary of the method: (§1)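 Compound was dispensed into 384-well plates at 5 concentrations in 10-fold steps spanning a 10,000-fold range specific to that compound. Breast cancer cell lines were added as 20 µl suspension and left for 72 h before CellTox Green fluorescence (485/520 nm) and then CellTiter-Glo luminescence, read after 10 min at room temperature. Each reported value is the normalised signal at one concentration, with 0.1 % DMSO set at 100 and a positive kill control at 0 on each plate.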

[2] = system: HCC1143
Summary of the method: as §1

[3] = system: MDA-MB-468
Summary of the method: as §1

[4] = system: MDA-MB-453
Summary of the method: as §1

[5] = system: CAL-85-1
Summary of the method: as §1

[6] = system: BT-549
Summary of the method: as §1

[7] = system: SK-BR-3
Summary of the method: as §1

[8] = system: DU-4475
Summary of the method: as §1

[9] = system: MCF-10A
Summary of the method: as §1

[10] = system: MDA-MB-231
Summary of the method: as §1

[11] = system: BT-474
Summary of the method: as §1

[12] = system: HCC1599
Summary of the method: as §1

[13] = system: HDQ-P1
Summary of the method: as §1

[14] = system: CAL-120
Summary of the method: as §1

[15] = system: MDA-MB-436
Summary of the method: as §1

[16] = system: CAL-148
Summary of the method: as §1

[17] = system: HCC1937
Summary of the method: as §1

[18] = system: CAL-51
Summary of the method: as §1

[19] = system: Hs578T
Summary of the method: as §1

Row | Compound | normalised response [1] | normalised response [2] | normalised response [3] | normalised response [4] | normalised response [5] | normalised response [6] | normalised response [7] | normalised response [8] | normalised response [9] | normalised response [10] | normalised response [11] | normalised response [12] | normalised response [13] | normalised response [14] | normalised response [15] | normalised response [16] | normalised response [17] | normalised response [18] | normalised response [19]
1 | CC(C)n1nc(-c2ccc3oc(N)nc3c2)c2c(N)ncnc21 [INK128] (1 nM) | 90.1% | 94.5% | 93.6% | 88.3% | 96.7% | 89% | 85.9% | 94.1% | 96.2% | 95.9% | 88.9% | 100% | 95.8% | 92.2% | 96.5% | 93.2% | 96.9% | 116% | 98.9%
2 | Cc1c(C(=O)Nc2ccc(N3C[C@@H](C)O[C@@H](C)C3)nc2)cccc1-c1ccc(OC(F)(F)F)cc1 [Erismodegib] (10 nM) | 91.9% | 93.4% | 86.6% | 81.8% | 95.2% | 99.6% | 69.9% | 101% | 86% | 99.2% | 92.9% | 104% | 95.5% | 91.7% | 91.9% | 94.6% | 96.3% | 127% | 101%
3 | Cc1c(N)nc([C@H](CC(N)=O)NC[C@H](N)C(N)=O)nc1C(=O)N[C@H](C(=O)N[C@H](C)[C@@H](O)[C@H](C)C(=O)N[C@H](C(=O)NCCc1nc(-c2nc(C(=O)NCCC[S+](C)C)cs2)cs1)[C@@H](C)O)[C@@H](OC1OC(CO)C(O)C(O)C1OC1OC(CO)C(O)C(OC(N)=O)C1O)c1cnc[nH]1 (stereo partly specified) [Bleomycin] (10 nM) | 101% | 98.9% | 98% | 104% | 96.1% | 87.6% | 106% | 98.1% | 100% | 96.3% | 95.7% | 97.7% | 97.6% | 97.3% | 94.2% | 85% | 93.3% | 97.5% | 99.8%
4 | CCc1cnn2c(NCc3ccc[n+]([O-])c3)cc(N3CCCC[C@H]3CCO)nc12 [Dinaciclib] (0.1 nM) | 100% | 102% | 93.8% | 99% | 98.4% | 109% | 103% | 102% | 106% | 98.5% | 97.1% | 103% | 104% | 99.6% | 99.3% | 110% | 102% | 82.8% | 99%
5 | CCCCCOC(=O)Nc1nc(=O)n([C@@H]2O[C@H](C)[C@@H](O)[C@H]2O)cc1F [Capecitabine] (10 nM) | 103% | 96.9% | 91.9% | 107% | 97.4% | 93.2% | 99.5% | 100% | 105% | 96.4% | 99.6% | 86.9% | 99.6% | 102% | 98.7% | 110% | 98.8% | 99.6% | 98.1%
6 | COc1cc2c(cc1-c1c(C)noc1C)ncc1[nH]c(=O)n([C@H](C)c3ccccn3)c12 [I-BET151] (1 nM) | 97.8% | 105% | 95.9% | 102% | 103% | 99.7% | 97.8% | 103% | 109% | 99.5% | 96.7% | 103% | 106% | 101% | 98.5% | 104% | 96.6% | 81.1% | 101%
7 | COc1cc(Nc2ncc(F)c(Nc3ccc4c(n3)N(COP(=O)(O)O)C(=O)C(C)(C)O4)n2)cc(OC)c1OC [Fostamatinib] (2.5 nM) | 98.8% | 102% | 96.7% | 104% | 99.7% | 102% | 92.7% | 93.8% | 97.7% | 96.2% | 103% | 87.7% | 110% | 105% | 92.9% | 97.7% | 99.6% | 73.5% | 102%
8 | CC(C)C[C@H](NC(=O)[C@H](CCc1ccccc1)NC(=O)CN1CCOCC1)C(=O)N[C@@H](Cc1ccccc1)C(=O)N[C@@H](CC(C)C)C(=O)[C@@]1(C)CO1 [Carfilzomib] (1 nM) | 112% | 106% | 106% | 101% | 105% | 99.5% | 107% | 108% | 115% | 105% | 115% | 108% | 108% | 105% | 109% | 108% | 101% | 87.7% | 100%
9 | Cc1c(C(=O)Nc2ccc(N3C[C@@H](C)O[C@@H](C)C3)nc2)cccc1-c1ccc(OC(F)(F)F)cc1 [Erismodegib] (1 nM) | 96.7% | 93.8% | 99.8% | 96.1% | 97.8% | 93.8% | 91.3% | 97.5% | 84.4% | 99% | 93.9% | 102% | 94.1% | 99.2% | 85.3% | 91.7% | 96.1% | 88.2% | 91.6%
10 | N[C@@H](Cc1ccc(N(CCCl)CCCl)cc1)C(=O)O [Melphalan] (12.5 nM) | 99.5% | 95.3% | 95.4% | 104% | 99.4% | 100% | 95% | 99.3% | 101% | 102% | 103% | 133% | 103% | 101% | 103% | 96.2% | 102% | 75.2% | 104%
11 | CO[C@H]1C[C@@H]2CC[C@@H](C)[C@@](O)(O2)C(=O)C(=O)N2CCCC[C@H]2C(=O)O[C@H]([C@H](C)C[C@@H]2CC[C@@H](O)[C@H](OC)C2)CC(=O)[C@H](C)/C=C(\C)[C@@H](O)[C@@H](OC)C(=O)[C@H](C)C[C@H](C)/C=C/C=C/C=C/1C [Sirolimus] (0.01 nM) | 95.5% | 92.4% | 94.1% | 103% | 89.9% | 97.6% | 106% | 104% | 106% | 93.6% | 99.1% | 98.3% | 100% | 95.9% | 103% | 91.1% | 105% | 87.1% | 94.7%
12 | CCc1c(C(=O)C(N)=O)c2c(OCC(=O)O)cccc2n1Cc1ccccc1 [Varespladib] (10 nM) | 102% | 102% | 98.9% | 95.4% | 97.3% | 92.9% | 99.1% | 102% | 105% | 99.7% | 97.2% | 95.9% | 97.1% | 96% | 96% | 104% | 97.7% | 107% | 104%
13 | Cn1cc(C[C@@H](N)C(=O)O)c2ccccc21 [1-methyl-D-tryptophan] (0.5 nM) | 92.8% | 96.5% | 98% | 99.4% | 94.3% | 101% | 93% | 101% | 97.1% | 95.2% | 96.1% | 102% | 105% | 95.6% | 103% | 87.4% | 97.6% | 113% | 99.3%
14 | CCc1c(C(=O)C(N)=O)c2c(OCC(=O)O)cccc2n1Cc1ccccc1 [Varespladib] (1 nM) | 97.7% | 99% | 89.2% | 106% | 97.9% | 98.7% | 101% | 93.6% | 110% | 111% | 97.6% | 102% | 100% | 98.1% | 102% | 109% | 96.6% | 100% | 103%
15 | NC(=O)c1cccc2cn(-c3ccc([C@@H]4CCCNC4)cc3)nc12 [MK-4827] (10 nM) | 104% | 107% | 98.6% | 105% | 106% | 101% | 83.4% | 104% | 114% | 101% | 110% | 104% | 93.7% | 107% | 107% | 108% | 96.9% | 125% | 98.4%
16 | O=NN(CCCl)C(=O)NC1CCCCC1 [Lomustine] (10 nM) | 104% | 103% | 92.5% | 106% | 95% | 98.3% | 90.8% | 102% | 107% | 99.4% | 105% | 83.8% | 102% | 98.3% | 95.2% | 98.6% | 102% | 120% | 108%
17 | CC[C@@H]1C(=O)N(C)c2cnc(Nc3ccc(C(=O)N[C@H]4CC[C@H](N5CCN(CC6CC6)CC5)CC4)cc3OC)nc2N1C(C)C [Volasertib] (1 nM) | 98.3% | 99.9% | 90.1% | 77.1% | 102% | 102% | 98.5% | 100% | 102% | 97.6% | 89.7% | 113% | 92.5% | 100% | 100% | 105% | 99.2% | 111% | 103%
18 | CC(C)n1nc(-c2ccc3oc(N)nc3c2)c2c(N)ncnc21 [INK128] (0.1 nM) | 89.8% | 86.4% | 93.3% | 101% | 96.6% | 93.9% | 96% | 90.2% | 90.6% | 92.1% | 90.8% | 94.7% | 87.9% | 91% | 79.1% | 92.2% | 89.1% | 106% | 96.3%
19 | CCCc1cc(C)[nH]c(=O)c1CNC(=O)c1cc(-c2ccnc(N3CCN(C)CC3)c2)cc2c1cnn2C(C)C [GSK343] (1 nM) | 94.7% | 87.7% | 89% | 99.5% | 102% | 100% | 91.9% | 92.7% | 99.5% | 92.5% | 94.2% | 80.2% | 98% | 95.5% | 97.3% | 84.4% | 93.4% | 116% | 105%
